# Measurements reported in publication PMC5617326, “Structural Basis of Catalysis in the Bacterial Monoterpene Synthases Linalool Synthase and 1,8-Cineole Synthase” (ACS Catalysis, 2017).
# What was measured:
# [1] = biological target: T1, bLinS; linalool synthase; linalool/nerolidol synthase (Streptomyces clavuligerus, UniProt D5SL78); experiment: X-ray crystal structure, co-crystal; EPR with Mn2+; type: binding; conditions: 1.82 A; FGPP in monomer A only; one Mg2+; noncatalytic mode suggested; pH 7.5
# T1 construct: gene SCLAV_p1185; full-length codon-optimized gene in pETM11, N-terminal 6xHis tag and TEV site, tag cleaved; E. coli ArcticExpress (DE3); ~330 residues; two molecules in asymmetric unit
# T1 sequence (D5SL78 1-329): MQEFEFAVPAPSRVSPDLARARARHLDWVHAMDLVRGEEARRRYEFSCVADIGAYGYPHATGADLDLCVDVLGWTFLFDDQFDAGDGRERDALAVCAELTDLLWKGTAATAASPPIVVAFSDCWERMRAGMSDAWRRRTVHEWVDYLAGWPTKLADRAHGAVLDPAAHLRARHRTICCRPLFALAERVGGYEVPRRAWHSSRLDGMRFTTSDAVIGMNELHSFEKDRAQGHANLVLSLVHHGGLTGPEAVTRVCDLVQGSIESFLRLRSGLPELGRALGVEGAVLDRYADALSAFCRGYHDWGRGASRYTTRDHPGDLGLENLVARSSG
# [2] = biological target: T2, bCinS; 1,8-cineole synthase (Streptomyces clavuligerus, UniProt B5GMG2); experiment: X-ray crystal structure, FGPP soaked into FNPP co-crystal; EPR with Mn2+; type: binding; conditions: 1.51 A; partial exchange, mixed FNPP/FGPP occupancy; three Mg2+ (third partly occupied); active site
# T2 construct: gene cnsA; full-length codon-optimized gene in pETM11, N-terminal 6xHis tag and TEV site, tag cleaved; E. coli ArcticExpress (DE3); ~330 residues; dimer
# T2 sequence (B5GMG2 whole entry): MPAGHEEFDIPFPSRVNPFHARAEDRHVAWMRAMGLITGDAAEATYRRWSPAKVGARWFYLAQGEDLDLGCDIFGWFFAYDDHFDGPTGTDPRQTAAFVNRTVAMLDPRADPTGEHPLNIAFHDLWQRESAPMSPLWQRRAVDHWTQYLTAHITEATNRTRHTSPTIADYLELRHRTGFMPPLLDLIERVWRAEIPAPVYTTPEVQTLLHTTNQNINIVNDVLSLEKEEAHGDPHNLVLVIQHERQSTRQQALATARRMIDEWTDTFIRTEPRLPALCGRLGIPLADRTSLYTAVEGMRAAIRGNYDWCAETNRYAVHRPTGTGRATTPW
# [3] = biological target: T1, bLinS; linalool synthase; linalool/nerolidol synthase; experiment: product analysis by GC-MS in engineered E. coli; chiral GC; type: cell-based; conditions: host-made FPP in E. coli expressing bLinS; product trans-nerolidol
compound,measurement,setting,value
"CC(C)=CCC/C(C)=C(\F)COP(=O)(O)OP(=O)(O)O [FGPP, 2-fluorogeranyl pyrophosphate]","X-ray crystal structure, co-crystal; EPR with Mn2+",[1],clear electron density corresponding to FGPP is only present in monomer A
same,"X-ray crystal structure, FGPP soaked into FNPP co-crystal; EPR with Mn2+",[2],Soaking of the bCinS-FNPP crystals with FGPP led to the partial exchange
"CC(C)=CCC/C(C)=C/CC/C(C)=C/COP(=O)(O)OP(=O)(O)O [FPP, farnesyl pyrophosphate]",product analysis by GC-MS in engineered E. coli; chiral GC,[3],Strains containing bLinS were able to convert FPP to nerolidol
